The text below walks through data of the NIST ThermoML archive (doi:10.1016/j.fluid.2015.07.055).

Numbers after ± are expanded uncertainties.

The conditions of data set [1]: Crystal; DTA.
The nature of data set [2]: Molar enthalpy of transition or fusion. Particulars: Crystal; DSC.

Turning to `CCC(C)(C)C(=O)O[C@H]1C[C@@H](C)C=C2C=C[C@H](C)[C@H](CC[C@@H]3C[C@@H](O)CC(=O)O3)[C@H]21` [(+)-Simvastatin], the Normal melting temperature in data set [1] is 142.0 ± 1.1 °C. The “Molar enthalpy of transition or fusion” value in data set [2] was 7.2 ± 0.335 kcal/mol.
